Data published in ChEMBL document CHEMBL1140773, “Discovery of amide and heteroaryl isosteres as carbamate replacements in a series of orally active gamma-secretase inhibitors” (Bioorg Med Chem Lett, 2008).

Test: in vivo
Conditions: rat, plasma, po, 10 mg/kg

AUC(0-t) at 6 h | Structure (SMILES)
2.65 µg·h/mL | CC[C@@H]1CCC[C@H](C2(CC(=O)N3CC4CCC(C3)N4C)CC2)N1S(=O)(=O)c1ccc(Cl)cc1 (mixture of isomers)
0.673 µg·h/mL | O=C(CC1([C@H]2CCC[C@@H](C3CC3)N2S(=O)(=O)c2ccc(Cl)cc2)CC1)N1CCN2CCCC[C@H]2C1 (racemic)
0.419 µg·h/mL | CC[C@@H]1CCC[C@H](C2(CC(=O)N3CCN4CCCC[C@H]4C3)CC2)N1S(=O)(=O)c1ccc(Cl)cc1 (racemic)
0.093 µg·h/mL | CC[C@@H]1CCC[C@H](C2(CC(=O)N3CCC(N4CCCCC4)CC3)CC2)N1S(=O)(=O)c1ccc(Cl)cc1 (racemic)

More lines, now with the values behind:

Structure (SMILES) | AUC(0-t) at 6 h
O=C(CC1([C@H]2CCC[C@@H](C3CC3)N2S(=O)(=O)c2ccc(Cl)cc2)CC1)N1CC2CCC(C1)N2CCO (mixture of isomers) | 5.81 µg·h/mL
CC(C)(CO)N1CCN(C(=O)CC2([C@H]3CCC[C@@H](C4CC4)N3S(=O)(=O)c3ccc(Cl)cc3)CC2)CC1 (racemic) | 1.35 µg·h/mL
CC[C@@H]1CCC[C@H](C2(CC(=O)N3CC4CCC(C3)N4CCO)CC2)N1S(=O)(=O)c1ccc(Cl)cc1 (mixture of isomers) | 3.22 µg·h/mL
CC[C@@H]1CCC[C@H](C2(Cc3nc(CN4CCCC4)no3)CC2)N1S(=O)(=O)c1ccc(Cl)cc1 (racemic) | 0.026 µg·h/mL
CC[C@@H]1CCC[C@H](C2(CC(=O)N3CCN(C(C)(C)CO)CC3)CC2)N1S(=O)(=O)c1ccc(Cl)cc1 (racemic) | 1.62 µg·h/mL
CN(Cc1noc(CC2([C@H]3CCC[C@@H](C4CC4)N3S(=O)(=O)c3ccc(Cl)cc3)CC2)n1)C(C)(C)CO (racemic) | 0.143 µg·h/mL
CC[C@@H]1CCC[C@H](C2(Cc3nc(CN(C)C(C)(C)CO)no3)CC2)N1S(=O)(=O)c1ccc(Cl)cc1 (racemic) | 0.973 µg·h/mL
